According to patent US11072588B2, “Barbituric acid derivatives comprising cationic and lipophilic groups” (UNIVERSITETET I TROMSØ—NORGES ARKTISKE UNIVERSITET, priority 2017, dated 2021):
≈ marks a conversion by molar mass, not a printed value. Like-named read-outs stand apart in the source and are kept apart here.

How the values were obtained:
[1] = Determination of haemolytic activity; assay type: cell-based; settings: human red blood cells (washed, from heparinized fresh blood); human RBCs, 1 h, 37° C.; read-out: RBC: haemolytic activity against human RBCs (EC50)
Protocol: Hemolysis was determined using a heparinized fraction (1000 IU/mL) of freshly drawn blood. Blood collected in EDTA containing test tubes (Vacutest®, KIMA, Arzergrande, Italy) was used for determination of the hematocrit (hct). The heparinized blood was washed 3× with pre-warmed PBS and adjusted to a final hct of 4%. Derivatives in DMSO (50 mM) were added to a 96-well polypropylene V-bottom plate (NUNC, Fisher Scientific, Oslo, Norway) and serially diluted. The test concentration range was 500-4 μM with DMSO contents ≤1%. A solution of 1% triton X-100 was used as positive control for 100% hemolysis. As negative control a solution of 1% DMSO in PBS buffer was included. No signs of DMSO toxicity were detected. RBCs (1% v/v final concentration) were added to the well plate and incubated at 37° C. and 800 rpm for 1 h. After centrifugation (5 min, 3000 g), 100 μL of each well were transferred to a 96-well flat bottom plate and absorbance was measured at 545 nm with a microplate reader (VersaMax™, Molecular Devices, Sunnyvale, Calif., USA). The percentage of hemolysis was calculated as the ratio of the absorbance in the derivative-treated and surfactant treated samples, corrected for the PBS background. Three independent experiments were performed and EC50 values are presented as averages.

[2] = system: P. aeruginosa 50692172; test: MIC, multi-resistant clinical isolate; assay type: cell-based, Pseudomonas aeruginosa; settings: for MIC: Pseudomonas aeruginosa, read-out: Antimicrobial activity (MIC); for selectivity index (EC50/MIC): RBC EC50 / MIC
[3] = system: P. aeruginosa K34-7; test: MIC, multi-resistant clinical isolate; assay type: cell-based, Pseudomonas aeruginosa; settings: for MIC: Pseudomonas aeruginosa, K347, read-out: Antimicrobial activity (MIC); for selectivity index (EC50/MIC): RBC EC50 / MIC, P. aeruginosa K34-7
[4] = system: K. pneumoniae 50531633; test: MIC, multi-resistant clinical isolate; assay type: cell-based, Klebsiella pneumoniae; settings: K. pneumoniae 50531633, resistant to colistin; for MIC: Klebsiella pneumoniae, 24 h, read-out: Antimicrobial activity (MIC); for selectivity index (EC50/MIC): RBC EC50 / MIC
Protocol: (§1) Working solutions of the test derivatives were prepared with up to 100% DMSO and stored at −20° C. If necessary, the solutions were heated to 40-80° C. before testing to facilitate complete dissolution. Double-distilled water was used in all dilutions prepared. […] A microdilution susceptibility test was used for MIC determination according to Clinical and Laboratory Standards Institute, “Methods for Dilution Antimicrobial Sisceptibility Tests for Bacteria That Graw Aerobically”, Approved Standard M07-A9, edition 2012, with modifications as described by Igumnova et al (Bioorg Med Chem, 2016, 24 (22), 5884-5894).
(§2) Briefly, the bacterial inoculum was adjusted to approximately 2.5-3×10^4 cells/mL in Mueller-Hinton broth (MHB, Difco Laboratories, USA), and incubated in a ratio of 1:1 with test derivatives in polystyrene 96-well flat-bottom microplates (NUNC, Roskilde, Denmark). Positive growth control (without test derivatives) and negative control (without bacteria) were included. The reference antibiotic was oxytetracycline hydrochloride (Sigma Aldrich, Saint Louis, Mo., USA). The microplates were incubated in an EnVision microplate reader (Perkin-Elmer, Turku, Finland) placed in an incubator set to 35° C. for 48 h. The MIC value was defined as the lowest concentration of derivative resulting in no bacterial growth as determined by OD600 measurement. All derivatives were tested in three parallels.
(§3) The MIC was determined as explained above with some exceptions; working solutions of test derivatives were prepared from concentrated DMSO stocks stored at room temperature, the density of the bacterial inoculum was increased 40× to 1-1.2×10^6 cells/mL, enterococci were incubated in Brain Heart Infusion broth (BHIB, Difco Laboratories, USA), the microplates were incubated for 24 h, and the derivatives were tested in four parallels.

[5] = system: K. pneumoniae 50625602; test: MIC, multi-resistant clinical isolate; assay type: cell-based, Klebsiella pneumoniae; settings: for MIC: Klebsiella pneumoniae, read-out: Antimicrobial activity (MIC); for selectivity index (EC50/MIC): RBC EC50 / MIC
Protocol: as §1, §2, §3

[6] = system: K. pneumoniae 50667959; test: MIC, multi-resistant clinical isolate; assay type: cell-based, Klebsiella pneumoniae; settings: for MIC: Klebsiella pneumoniae, read-out: Antimicrobial activity (MIC); for selectivity index (EC50/MIC): RBC EC50 / MIC
Protocol: as §1, §2, §3

[7] = system: K. pneumoniae K47-25; test: MIC, multi-resistant clinical isolate; assay type: cell-based, Klebsiella pneumoniae; settings: for MIC: Klebsiella pneumoniae, K4725, 24 h, read-out: Antimicrobial activity (MIC); for selectivity index (EC50/MIC): RBC EC50 / MIC
Protocol: as §1, §2, §3

[8] = system: K. pneumoniae K66-45; test: MIC, multi-resistant clinical isolate; assay type: cell-based, Klebsiella pneumoniae; settings: for MIC: Klebsiella pneumoniae, K6645, read-out: Antimicrobial activity (MIC); for selectivity index (EC50/MIC): RBC EC50 / MIC, K. pneumoniae K66-45
Protocol: as §1, §2, §3

[9] = system: A. baumanii K12-21; test: MIC, multi-resistant clinical isolate; assay type: cell-based, Acinetobacter baumannii; settings: for MIC: Acinetobacter baumannii, K1221, read-out: Antimicrobial activity (MIC); for selectivity index (EC50/MIC): RBC EC50 / MIC
Protocol: as §1, §2, §3

[10] = system: A. baumanii K44-35; test: MIC, multi-resistant clinical isolate; assay type: cell-based, Acinetobacter baumannii; settings: for MIC: Acinetobacter baumannii, K4435, read-out: Antimicrobial activity (MIC); for selectivity index (EC50/MIC): RBC EC50 / MIC
Protocol: as §1, §2, §3

[11] = system: A. baumanii K47-42; test: MIC, multi-resistant clinical isolate; assay type: cell-based, Acinetobacter baumannii; settings: for MIC: Acinetobacter baumannii, K4742, read-out: Antimicrobial activity (MIC); for selectivity index (EC50/MIC): RBC EC50 / MIC
Protocol: as §1, §2, §3

[12] = system: A. baumanii K55-13; test: MIC, multi-resistant clinical isolate; assay type: cell-based, Acinetobacter baumannii; settings: for MIC: Acinetobacter baumannii, K5513, read-out: Antimicrobial activity (MIC); for selectivity index (EC50/MIC): RBC EC50 / MIC
Protocol: as §1, §2, §3

[13] = system: A. baumanii K63-58; test: MIC, multi-resistant clinical isolate; assay type: cell-based, Acinetobacter baumannii; settings: A. baumanii K63-58, resistant to colistin; for MIC: Acinetobacter baumannii, K6358, 24 h, read-out: Antimicrobial activity (MIC); for selectivity index (EC50/MIC): RBC EC50 / MIC
Protocol: as §1, §2, §3

[14] = system: antibiotic susceptible Gram-positive and Gram-negative reference strains; test: MIC assay, ranges over the reference strains; assay type: cell-based; settings: reference strains, range; read-out: MIC values against the Gram-negative bacteria E. coli and P. aeruginosa
Protocol: as §1, §2

[15] = K. pneumoniae K47-25, resistant to colistin

N=C(N)NCCCCN1C(=O)N(CCCCNC(=N)N)C(=O)C(Cc2ccc3ccccc3c2)(Cc2ccc3ccccc3c2)C1=O [8(iv), 1,1′-(4,4′-(5,5-bis(naphthalen-2-ylmethyl)-2,4,6-trioxodihydropyrimidine-1,3(2H,4H)-diyl)bis(butane-4,1-diyl))-diguanidine]
EC50 at 1 h [1]: 133 µg/mL (≈ 210 µM) | MIC [2]: 32 µg/mL (≈ 50.4 µM) | selectivity index (EC50/MIC) [2]: (4) | MIC [3]: 32 µg/mL (≈ 50.4 µM) | selectivity index (EC50/MIC) [3]: (4) | MIC [4]: 16 µg/mL (≈ 25.2 µM) | selectivity index (EC50/MIC) [4]: (8) | MIC [5]: 16 µg/mL (≈ 25.2 µM) | selectivity index (EC50/MIC) [5]: (8) | MIC [6]: 16 µg/mL (≈ 25.2 µM) | selectivity index (EC50/MIC) [6]: (8) | MIC [7, 15]: 16 µg/mL (≈ 25.2 µM) | selectivity index (EC50/MIC) [7, 15]: (8) | MIC [8]: 16 µg/mL (≈ 25.2 µM) | selectivity index (EC50/MIC) [8]: (8) | MIC [9]: 32 µg/mL (≈ 50.4 µM) | selectivity index (EC50/MIC) [9]: (4) | MIC [10]: 32 µg/mL (≈ 50.4 µM) | selectivity index (EC50/MIC) [10]: (4) | MIC [11]: 32 µg/mL (≈ 50.4 µM) | selectivity index (EC50/MIC) [11]: (4) | MIC [12]: 32 µg/mL (≈ 50.4 µM) | selectivity index (EC50/MIC) [12]: (4) | MIC [13]: 32 µg/mL (≈ 50.4 µM) | selectivity index (EC50/MIC) [13]: (4)

CC(C)(C)c1ccc(CC2(Cc3ccc(C(C)(C)C)cc3)C(=O)N(CCCCNC(=N)N)C(=O)N(CCCCNC(=N)N)C2=O)cc1 [Compound 8(i), 1,1′-(4,4′-(5,5-bis(4-tert-butylbenzyl)-2,4,6-trioxodihydropyrimidine-1,3(2H,4H)-diyl)bis(butane-4,1-diyl))diguanidine]
EC50 at 1 h [1]: 77 µg/mL (≈ 119 µM) | MIC [2]: 16 µg/mL (≈ 24.7 µM) | selectivity index (EC50/MIC) [2]: (5) | MIC [3]: 16 µg/mL (≈ 24.7 µM) | selectivity index (EC50/MIC) [3]: (5) | MIC [4]: 4 µg/mL (≈ 6.18 µM) | selectivity index (EC50/MIC) [4]: (19) | MIC [5]: 4 µg/mL (≈ 6.18 µM) | selectivity index (EC50/MIC) [5]: (19) | MIC [6]: 16 µg/mL (≈ 24.7 µM) | selectivity index (EC50/MIC) [6]: (5) | MIC [7, 15]: 4 µg/mL (≈ 6.18 µM) | selectivity index (EC50/MIC) [7, 15]: (19) | MIC [8]: 4 µg/mL (≈ 6.18 µM) | selectivity index (EC50/MIC) [8]: (19) | MIC [9]: 4 µg/mL (≈ 6.18 µM) | selectivity index (EC50/MIC) [9]: (19) | MIC [10]: 8 µg/mL (≈ 12.4 µM) | selectivity index (EC50/MIC) [10]: (10) | MIC [11]: 8 µg/mL (≈ 12.4 µM) | selectivity index (EC50/MIC) [11]: (10) | MIC [12]: 8 µg/mL (≈ 12.4 µM) | selectivity index (EC50/MIC) [12]: (10) | MIC [13]: 4 µg/mL (≈ 6.18 µM) | selectivity index (EC50/MIC) [13]: (19) | MIC [14]: 1 to 4 µg/mL (≈ 1.55 to 6.18 µM)

NCCCCN1C(=O)N(CCCCN)C(=O)C(Cc2ccc3ccccc3c2)(Cc2ccc3ccccc3c2)C1=O [7(iv), 1,3-bis(4-aminobutyl)-5,5-bis(naphtalen-2-yl-methyl)-pyrimidin-2,4,6(1H,3H,5H)-trione]
EC50 at 1 h [1]: 243 µg/mL (≈ 441 µM) | MIC [2]: 32 µg/mL (≈ 58.1 µM) | selectivity index (EC50/MIC) [2]: (8) | MIC [3]: 32 µg/mL (≈ 58.1 µM) | selectivity index (EC50/MIC) [3]: (8) | MIC [4]: 32 µg/mL (≈ 58.1 µM) | selectivity index (EC50/MIC) [4]: (8) | MIC [5]: > 32 µg/mL | MIC [6]: > 32 µg/mL | MIC [7]: > 32 µg/mL | MIC [8]: > 32 µg/mL | MIC [9]: 32 µg/mL (≈ 58.1 µM) | selectivity index (EC50/MIC) [9]: (8) | MIC [10]: 32 µg/mL (≈ 58.1 µM) | selectivity index (EC50/MIC) [10]: (8) | MIC [11]: 32 µg/mL (≈ 58.1 µM) | selectivity index (EC50/MIC) [11]: (8) | MIC [12]: 32 µg/mL (≈ 58.1 µM) | selectivity index (EC50/MIC) [12]: (8) | MIC [13]: 16 µg/mL (≈ 29.1 µM) | selectivity index (EC50/MIC) [13]: (15)
